From patent US20070219186A1, “Pyrazolo[1,5-A]pyrimidine derivatives and methods of use thereof” (priority 2006, published 2007)
Read-outs that look alike come from different tables or passages of the source.

Biological target: T1, human B-Raf (Homo sapiens, UniProt P15056)
T1 construct: Flag; GST; made in house; host or cells: Sf9 insect cells (B-Raf); E. coli (MEK1-GST)
Experiment: B-Raf Kinase to MEK1 ELISA
Format: biochemical
Conditions: for IC50: median, cpd concentrations from 10 μM to 30 nM in half log dilutions, read-out: Median IC50; for inhibition at 10 µM: read-out: % Inhib./10 uM
Text: TITLE: B-Raf Kinase to MEK1 ELISA
PURPOSE: To discover B-Raf Kinase inhibitors that can inhibit growth of tumor cells which contain oncogenic forms of Receptor Tyrosine Kinases or K-Ras, or B-Raf kinase.
Reagents: Flag/GST-tagged recombinant human B-Raf produced in Sf9 insect cells, human non-active Mek-1-GST (recombinant protein produced in E. coli); and a phospho-MEK1 specific poly-clonal Ab from Cell Signaling Technology (cat. #9121).
B-Raf1 Kinase Assay Procedure:
B-Raf-1 is used to phosphorylate GST-MEK1. MEK1 phosphorylation is measured by a phospho-specific antibody (from Cell Signaling Technology, cat. #9121) that detects phosphorylation of two serine residues at positions 217 and 221 on MEK1.
B-Raf Assay Stock Solutions:
1. Assay Dilution Buffer (ADB): 20 mM MOPS, pH 7.2, 25 mM β-glycerol phosphate, 5 mM EGTA, 1 mM sodium orthovanadate, 1 mM dithiothreitol.
2. Magnesium/ATP Cocktail: 200 μM cold ATP and 40 mM magnesium chloride in ADB.
3. Active Kinase: Active B-Raf: used at ˜20 ng per assay point.
4. Non-active GST-MEK1: Use at 100 nM (50 nM final).
6. Anti-GST Ab (Pharmacia)
7. Anti-rabbit Ab/Europium conjugate (Wallac)
1. Add 25 μl of ADB containing B-Raf and Mek per assay (i.e. per well of a 96 well plate)
2. Add 25 μl of 0.2 mM ATP and 40 mM magnesium chloride in ADB.
3. Incubate for 60 minutes at RT in a shaking incubator.
4. Transfer this mixture to an anti-GST Ab coated 96 well plate (Nunc Immunosorb plates coated o/n with a-GST.
5. Incubate for 60 minutes at 30° C. in a shaking incubator
6. Wash 3× with TBST, add Anti-Phospho MEK1 (1:1000)
7. Incubate for 60 minutes at 30° C. in a shaking incubator
8. Wash 3× with TBST, add Anti-rabbit Ab/Europium conjugate (Wallac) (1:500)
9. Incubate for 60 minutes at 30° C. in a shaking incubator
10. Add 100 ul of Wallac Delfia Enhancement Solution and shake for 10 minutes.
11. Read plates in Wallac Victor model Plate Reader.
12. Collect data analyze in Excel for single point and IC50 determinations.
Typically Raf-1 assay is run at cpd concentrations from 10 μM to 30 nM in half log dilutions. (% inhibition is determined for each cpd concentration)

T1 sequence (P15056 whole entry): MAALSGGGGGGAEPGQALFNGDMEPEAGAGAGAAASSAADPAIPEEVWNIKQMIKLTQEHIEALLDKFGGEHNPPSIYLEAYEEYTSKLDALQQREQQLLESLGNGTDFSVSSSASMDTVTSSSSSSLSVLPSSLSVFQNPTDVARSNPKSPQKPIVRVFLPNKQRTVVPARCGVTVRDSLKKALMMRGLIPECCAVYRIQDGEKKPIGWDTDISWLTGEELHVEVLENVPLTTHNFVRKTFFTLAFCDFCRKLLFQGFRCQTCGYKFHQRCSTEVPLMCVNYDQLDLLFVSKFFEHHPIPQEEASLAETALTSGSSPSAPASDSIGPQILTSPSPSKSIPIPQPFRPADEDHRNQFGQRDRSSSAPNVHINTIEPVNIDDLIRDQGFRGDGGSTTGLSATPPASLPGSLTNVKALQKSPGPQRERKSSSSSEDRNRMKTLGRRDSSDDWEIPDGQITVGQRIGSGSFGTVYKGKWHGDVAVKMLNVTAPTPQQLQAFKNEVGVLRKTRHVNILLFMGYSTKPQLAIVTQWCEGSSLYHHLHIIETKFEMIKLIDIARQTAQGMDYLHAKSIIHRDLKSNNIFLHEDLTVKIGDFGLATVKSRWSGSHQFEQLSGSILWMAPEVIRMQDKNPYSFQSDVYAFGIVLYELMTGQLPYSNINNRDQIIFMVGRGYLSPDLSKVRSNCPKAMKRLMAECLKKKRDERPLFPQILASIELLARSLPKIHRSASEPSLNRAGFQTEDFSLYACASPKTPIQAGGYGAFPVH

Compound | IC50 [µM] | inhibition at 10 µM [%] | inhibition at 10 µM (single point assay, 10 uM) [%]
CCOC(=O)c1cnn2c(-c3cccc(NC(=O)c4cc(C(F)(F)F)cc(Cl)c4F)c3)ccnc12 [Example 28, ethyl 7-(3-{[3-chloro-2-fluoro-5-(trifluoromethyl)benzoyl]amino}phenyl)pyrazolo[1,5-a]pyrimidine-3-carboxylate] | > 10 | 19 | –
CCOC(=O)c1cnn2c(-c3cccc(NC(=O)c4cc(F)c(Cl)cc4F)c3)ccnc12 [Example 29, ethyl 7-{3-[(4-chloro-2,5-difluorobenzoyl)amino]phenyl}pyrazolo[1,5-a]pyrimidine-3-carboxylate] | > 10 | 0 | –
CCOC(=O)c1cnn2c(-c3cccc(NC(=O)c4ccc(OC)c(C(F)(F)F)c4)c3)ccnc12 [Example 30, ethyl 7-(3-{[4-methoxy-3-(trifluoromethyl)benzoyl]amino}phenyl)pyrazolo[1,5-a]pyrimidine-3-carboxylate] | 1.3 | 75 | –
CNC(=O)c1cnn2c(-c3cccc(NC(=O)c4cccc(C(F)(F)F)c4)c3)ccnc12 [Example 31, N-methyl-7-(3-{[3-(trifluoromethyl)benzoyl]amino}phenyl)-pyrazolo[1,5-a]pyrimidine-3-carboxamide] | > 10 | 48 | –
O=C(Nc1cccc(-c2ccnc3c(C(=O)O)cnn23)c1)c1cccc(C(F)(F)F)c1 [Example 32, 7-(3-{[3-(trifluoromethyl)benzoyl]amino}phenyl)pyrazolo[1,5-a]pyrimidine-3-carboxylic acid] | > 10 | 29 | –
CCOC(=O)c1cnn2c(-c3cccc(NC(=O)Nc4cccc(C(F)(F)F)c4)c3)ccnc12 [Example 33, ethyl 7-{3-[({[3-(trifluoromethyl)phenyl]amino}carbonyl)amino]phenyl}pyrazolo[1,5-a]pyrimidine-3-carboxylate] | 0.68 | 80 | –
CCOC(=O)c1cnn2c(-c3cccc(NC(=O)Nc4ccc(Cl)cc4)c3)ccnc12 [Example 34, ethyl 7-[3-({[(4-chlorophenyl)amino]carbonyl}amino)phenyl]pyrazolo[1,5-a]pyrimidine-3-carboxylate] | > 10 | 37 | –
CCOC(=O)c1cnn2c(-c3cccc(NC(=O)Nc4ccc(C(F)(F)F)cc4)c3)ccnc12 [Example 35, ethyl 7-{3-[({[4-(trifluoromethyl)phenyl]amino}carbonyl)amino]phenyl}pyrazolo[1,5-a]pyrimidine-3-carboxylate] | 3.1 | 71 | –
CCOC(=O)c1cnn2c(-c3cccc(NC(=O)Nc4ccc(Cl)cc4C)c3)ccnc12 [Example 36, ethyl 7-[3-({[(4-chloro-2-methylphenyl)amino]carbonyl}amino)phenyl]pyrazolo[1,5-a]pyrimidine-3-carboxylate] | > 10 | 33 | –
CCOC(=O)c1cnn2c(-c3cccc(NC(=O)Nc4cc(C(F)(F)F)ccc4Cl)c3)ccnc12 [Example 37, ethyl 7-{3-[({[2-chloro-5-(trifluoromethyl)phenyl]amino}carbonyl)amino]phenyl}pyrazolo[1,5-a]pyrimidine-3-carboxylate] | 6.82 | 76 | –
CCOC(=O)c1cnn2c(-c3cccc(NC(=O)Nc4ccc(C#N)cc4)c3)ccnc12 [Example 38, ethyl 7-[3-({[(4-cyanophenyl)amino]carbonyl}amino)phenyl]pyrazolo[1,5-a]pyrimidine-3-carboxylate] | > 10 | 20 | –
CCOC(=O)c1cnn2c(-c3cccc(NC(=O)Nc4ccccc4C(F)(F)F)c3)ccnc12 [Example 39, ethyl 7-{3-[({[2-(trifluoromethyl)phenyl]amino}carbonyl)amino]phenyl}pyrazolo[1,5-a]pyrimidine-3-carboxylate] | > 10 | – | 14
CCOC(=O)c1cnn2c(-c3cccc(NC(=O)Nc4ccc(Cl)c(Cl)c4)c3)ccnc12 [Example 40, ethyl 7-[3-({[(3,4-dichlorophenyl)amino]carbonyl}amino)phenyl]pyrazolo[1,5-a]pyrimidine-3-carboxylate] | 0.34 | 81 | –
CCOC(=O)c1cnn2c(-c3cccc(NC(=O)Nc4ccc(Br)cc4)c3)ccnc12 [Example 41, ethyl 7-[3-({[(4-bromophenyl)amino]carbonyl}amino)phenyl]pyrazolo[1,5-a]pyrimidine-3-carboxylate] | > 10 | 37 | –
CCOC(=O)c1cnn2c(-c3cccc(NC(=O)Nc4ccc(C)c(C)c4)c3)ccnc12 [Example 42, ethyl 7-[3-({[(3,4-dimethylphenyl)amino]carbonyl}amino)phenyl]pyrazolo[1,5-a]pyrimidine-3-carboxylate] | 3.53 | 70 | –
CCOC(=O)c1cnn2c(-c3cccc(NC(=O)Nc4ccc(Cl)cc4C(F)(F)F)c3)ccnc12 [Example 43, ethyl 7-{3-[({[4-chloro-2-(trifluoromethyl)phenyl]amino}carbonyl)amino]phenyl}pyrazolo[1,5-a]pyrimidine-3-carboxylate] | > 10 | 9 | –
CCOC(=O)c1cnn2c(-c3cccc(NC(=O)Nc4ccc(F)c(C(F)(F)F)c4)c3)ccnc12 [Example 44, ethyl 7-{3-[({[4-fluoro-3-(trifluoromethyl)phenyl]amino}carbonyl)amino]phenyl}pyrazolo[1,5-a]pyrimidine-3-carboxylate] | 0.27 | 90 | –
COCCNC(=O)c1cnn2c(-c3cccc(NC(=O)c4cccc(C(F)(F)F)c4)c3)ccnc12 [Example 45, N-(2-methoxyethyl)-7-(3-{[3-(trifluoromethyl)benzoyl]amino}phenyl)pyrazolo[1,5-a]pyrimidine-3-carboxamide] | – | 56 | –
CCCNC(=O)c1cnn2c(-c3cccc(NC(=O)c4cccc(C(F)(F)F)c4)c3)ccnc12 [Example 46, N-propyl-7-(3-{[3-(trifluoromethyl)benzoyl]amino}phenyl)pyrazolo[1,5-a]pyrimidine-3-carboxamide] | – | 54 | –
O=C(Nc1cccc(-c2ccnc3c(C(=O)Nc4cccnc4)cnn23)c1)c1cccc(C(F)(F)F)c1 [Example 47, N-pyridin-3-yl-7-(3-{[3-(trifluoromethyl)benzoyl]amino}phenyl)pyrazolo[1,5-a]pyrimidine-3-carboxamide] | > 10 | 35 | –
O=C(Nc1cccc(-c2ccnc3c(C(=O)NCCN4CCCC4)cnn23)c1)c1cccc(C(F)(F)F)c1 [Example 48, N-(2-pyrrolidin-1-ylethyl)-7-(3-{[3-(trifluoromethyl)benzoyl]amino}phenyl)pyrazolo[1,5-a]pyrimidine-3-carboxamide] | – | 43 | –
CN(C)CCNC(=O)c1cnn2c(-c3cccc(NC(=O)c4cccc(C(F)(F)F)c4)c3)ccnc12 [Example 49, N-[2-(dimethylamino)ethyl]-7-(3-{[3-(trifluoromethyl)benzoyl]amino}phenyl)pyrazolo[1,5-a]pyrimidine-3-carboxamide] | 5.94 | 62 | –
CN1CCN(CCCNC(=O)c2cnn3c(-c4cccc(NC(=O)c5cccc(C(F)(F)F)c5)c4)ccnc23)CC1 [Example 50, N-[3-(4-methylpiperazin-1-yl)propyl]-7-(3-{[3-(trifluoromethyl)benzoyl]amino}phenyl)pyrazolo[1,5-a]pyrimidine-3-carboxamide] | 8 | 42 | –
CCNC(=O)c1cnn2c(-c3cccc(NC(=O)c4cccc(C(F)(F)F)c4)c3)ccnc12 [Example 51, N-ethyl-7-(3-{[3-(trifluoromethyl)benzoyl]amino}phenyl)pyrazolo[1,5-a]pyrimidine-3-carboxamide] | – | 50 | –
O=C(Nc1cccc(-c2ccnc3c(C(=O)NCCN4CCOCC4)cnn23)c1)c1cccc(C(F)(F)F)c1 [Example 52, N-(2-morpholin-4-ylethyl)-7-(3-{[3-(trifluoromethyl)benzoyl]amino}phenyl)pyrazolo[1,5-a]pyrimidine-3-carboxamide] | 8 | 60 | –
O=C(Nc1cccc(-c2ccnc3c(C(=O)NCCCN4CCOCC4)cnn23)c1)c1cccc(C(F)(F)F)c1 [Example 53, N-(3-morpholin-4-ylpropyl)-7-(3-{[3-(trifluoromethyl)benzoyl]amino}phenyl)pyrazolo[1,5-a]pyrimidine-3-carboxamide] | 5 | 55 | –
